Assay [1] addresses Human norepinephrine transporter (NET) (Homo sapiens, UniProt P23975). Briefly: Binding assay to human norepinephrine transporter (NET), [3H]-Nisoxetin. Particulars: human NET enriched membranes, 5 nM [3H]-Nisoxetin; read-out: Ki (nM) NET Hum. Here is the method:
Binding Assay to Human Norepinephrine Transporter (NET).
Human norepinephrine transporter (NET) enriched membranes (5 μg) were incubated with 5 nM of radiolabeled [3H]-Nisoxetin in assay buffer containing 50 mM Tris-HCl, 120 mM NaCl, 5 mM KCl, pH 7.4.
NSB (non specific binding) was measured by adding 1 μM. After 60 min incubation at 4° C., binding reaction was terminated by filtering through Multiscreen GF/C (Millipore) presoaked in 0.5% polyethyleneimine in Vacuum Manifold Station, followed by 3 washes with ice-cold filtration buffer containing 50 mM Tris-HCl, 0.9% NaCl, pH 7.4. Filter plates were dried at 60° C. for 1 hour and 30 μl of scintillation cocktail were added to each well before radioactivity reading.

Assay [2] has as its target Human α2δ-1 subunit of Cav2.2 calcium channel (Homo sapiens, UniProt P54289). Briefly: Binding assay to human α2δ-1 subunit of Cav2.2 calcium channel, [3H]-Gabapentin. Particulars: human α2δ-1 enriched membranes, 15 nM [3H]-Gabapentin; read-out: Ki (nM) alpha2delta Hum. Here is the method:
Binding Assay to Human α2δ-1 Subunit of Cav2.2 Calcium Channel.
Human α2δ-1 enriched membranes (2.5 μg) were incubated with 15 nM of radiolabeled [3H]-Gabapentin in assay buffer containing Hepes-KOH 10 mM, pH 7.4.
NSB (non specific binding) was measured by adding 10 μM pregabalin. After 60 min incubation at 27° C., binding reaction was terminated by filtering through Multiscreen GF/C (Millipore) presoaked in 0.5% polyethyleneimine in Vacuum Manifold Station, followed by 3 washes with ice-cold filtration buffer containing 50 mM Tris-HCl, pH 7.4.
Filter plates were dried at 60° C. for 1 hour and 30 μl of scintillation cocktail were added to each well before radioactivity reading.
Readings were performed in a Trilux 1450 Microbeta radioactive counter (Perkin Elmer).

SMILES strings stand for the structures.

Human α2δ-1 subunit of Cav2.2 calcium channel, sequence (P54289 25-1103): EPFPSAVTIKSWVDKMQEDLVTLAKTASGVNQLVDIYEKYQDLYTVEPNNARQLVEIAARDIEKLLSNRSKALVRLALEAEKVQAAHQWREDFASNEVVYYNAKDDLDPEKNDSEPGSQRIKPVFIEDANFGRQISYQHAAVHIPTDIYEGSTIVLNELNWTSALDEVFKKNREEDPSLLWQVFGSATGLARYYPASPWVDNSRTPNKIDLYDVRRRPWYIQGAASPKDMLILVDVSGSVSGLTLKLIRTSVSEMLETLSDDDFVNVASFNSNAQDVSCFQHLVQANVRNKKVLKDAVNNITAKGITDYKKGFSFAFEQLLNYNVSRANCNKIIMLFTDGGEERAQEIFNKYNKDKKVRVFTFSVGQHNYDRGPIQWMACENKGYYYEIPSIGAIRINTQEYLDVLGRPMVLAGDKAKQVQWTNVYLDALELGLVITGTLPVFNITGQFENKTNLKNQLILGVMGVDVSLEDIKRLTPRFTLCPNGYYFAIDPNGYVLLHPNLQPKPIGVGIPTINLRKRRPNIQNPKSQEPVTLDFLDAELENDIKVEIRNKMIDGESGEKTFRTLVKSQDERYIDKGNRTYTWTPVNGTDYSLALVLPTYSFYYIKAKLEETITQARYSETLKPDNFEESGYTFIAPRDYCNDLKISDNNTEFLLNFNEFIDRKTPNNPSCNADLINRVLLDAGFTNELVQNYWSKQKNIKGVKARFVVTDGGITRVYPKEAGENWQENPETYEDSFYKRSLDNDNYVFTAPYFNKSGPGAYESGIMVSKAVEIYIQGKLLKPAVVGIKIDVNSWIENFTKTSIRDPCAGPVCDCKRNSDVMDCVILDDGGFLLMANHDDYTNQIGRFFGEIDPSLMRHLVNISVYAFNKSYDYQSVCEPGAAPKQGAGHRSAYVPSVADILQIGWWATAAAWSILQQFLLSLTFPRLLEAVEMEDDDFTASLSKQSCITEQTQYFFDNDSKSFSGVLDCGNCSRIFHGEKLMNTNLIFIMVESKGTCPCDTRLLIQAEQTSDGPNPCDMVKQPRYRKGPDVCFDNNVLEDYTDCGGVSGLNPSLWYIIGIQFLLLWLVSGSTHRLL
Human norepinephrine transporter (NET), sequence (P23975 whole entry): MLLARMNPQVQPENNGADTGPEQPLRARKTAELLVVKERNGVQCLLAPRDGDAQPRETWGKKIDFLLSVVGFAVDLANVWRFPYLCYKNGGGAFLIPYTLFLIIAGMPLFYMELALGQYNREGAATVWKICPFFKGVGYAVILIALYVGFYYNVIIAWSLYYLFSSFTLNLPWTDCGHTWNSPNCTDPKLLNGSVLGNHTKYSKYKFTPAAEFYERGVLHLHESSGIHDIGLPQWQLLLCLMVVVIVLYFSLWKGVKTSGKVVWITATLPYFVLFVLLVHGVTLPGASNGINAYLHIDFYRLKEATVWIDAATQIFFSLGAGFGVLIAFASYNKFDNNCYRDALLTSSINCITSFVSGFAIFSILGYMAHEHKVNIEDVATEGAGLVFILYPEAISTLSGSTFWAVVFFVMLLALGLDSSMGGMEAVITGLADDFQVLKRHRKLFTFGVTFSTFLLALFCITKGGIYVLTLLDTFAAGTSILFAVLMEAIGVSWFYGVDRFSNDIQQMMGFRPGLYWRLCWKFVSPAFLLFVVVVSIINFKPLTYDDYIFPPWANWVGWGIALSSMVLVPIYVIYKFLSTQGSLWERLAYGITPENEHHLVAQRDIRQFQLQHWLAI

For `CNCC[C@H](c1cccs1)N1CCc2nc(C(C)C)ccc21` [Example 48, (R)-3-(5-Isopropyl-2,3-dihydro-1H-pyrrolo[3,2-b]pyridin-1-yl)-N-methyl-3-(thiophen-2-yl)propan-1-amine], the values for the Ki in assay [1] and in assay [2] were more than 1000 nM and 500 to 3000 nM, respectively.
For `CNCC[C@@H](c1cccs1)N1CCc2nc(C(C)C)ccc21` [Example 49, (S)-3-(5-Isopropyl-2,3-dihydro-1H-pyrrolo[3,2-b]pyridin-1-yl)-N-methyl-3-(thiophen-2-yl)propan-1-amine] the same measures were more than 1000 nM and not below 3000 nM.
For `CNCC[C@@H](c1cscc1C)N1CCc2ncccc21` [Example 50, (S)-3-(2,3-Dihydro-1H-pyrrolo[3,2-b]pyridin-1-yl)-N-methyl-3-(4-methylthiophen-3-yl)propan-1-amine], the Ki in assay [1] was 100 to 500 nM; in assay [2] it was not below 3000 nM.
For `CNCC[C@H](c1cscc1C)N1CCc2ncccc21` [Example 51, (R)-3-(2,3-Dihydro-1H-pyrrolo[3,2-b]pyridin-1-yl)-N-methyl-3-(4-methylthiophen-3-yl)propan-1-amine] the same measures were more than 1000 nM and not below 3000 nM.
For `CNCC[C@H](c1ccsc1)N1CCc2ncc(C3CC3)cc21` [Example 52, (R)-3-(6-Cyclopropyl-2,3-dihydro-1H-pyrrolo[3,2-b]pyridin-1-yl)-N-methyl-3-(thiophen-3-yl)propan-1-amine] the same measures were 500 to 1000 nM and less than 100 nM.
For `CNCC[C@@H](c1ccsc1)N1CCc2ncc(C3CC3)cc21` [Example 53, (S)-3-(6-Cyclopropyl-2,3-dihydro-1H-pyrrolo[3,2-b]pyridin-1-yl)-N-methyl-3-(thiophen-3-yl)propan-1-amine] the same measures were more than 1000 nM and 500 to 3000 nM.
As for `CNCC[C@H](c1nccs1)N1CCc2ncccc21` [Example 54, (R)-3-(2,3-Dihydro-1H-pyrrolo[3,2-b]pyridin-1-yl)-N-methyl-3-(thiazol-2-yl)propan-1-amine], the results for the Ki in assay [1] and in assay [2] were more than 1000 nM and not below 3000 nM, respectively.
For `CNCC[C@@H](c1nccs1)N1CCc2ncccc21` [Example 55, (S)-3-(2,3-Dihydro-1H-pyrrolo[3,2-b]pyridin-1-yl)-N-methyl-3-(thiazol-2-yl)propan-1-amine] the same measures were more than 1000 nM and not below 3000 nM.
`CNCC[C@H](c1cc(C)cs1)N1CCc2ncccc21` [Example 56, (R)-3-(2,3-Dihydro-1H-pyrrolo[3,2-b]pyridin-1-yl)-N-methyl-3-(4-methylthiophen-2-yl)propan-1-amine]: the Ki in assay [1] is more than 1000 nM; in assay [2] it was 500 to 3000 nM.
As to `CNCC[C@@H](c1cc(C)cs1)N1CCc2ncccc21` [Example 57, (S)-3-(2,3-Dihydro-1H-pyrrolo[3,2-b]pyridin-1-yl)-N-methyl-3-(4-methylthiophen-2-yl)propan-1-amine], the Ki is more than 1000 nM in assay [1] and 500 to 3000 nM in assay [2].
For `CNCC[C@H](c1ccsc1)N1CC(C)(C)c2nc(C)ccc21` [Example 58, (R)-N-methyl-3-(thiophen-3-yl)-3-(3,3,5-trimethyl-2,3-dihydro-1H-pyrrolo[3,2-b]pyridin-1-yl)propan-1-amine] the same measures were more than 1000 nM and 100 to 500 nM.
For `CNCC[C@@H](c1ccsc1)N1CC(C)(C)c2nc(C)ccc21` [Example 59, (S)-N-methyl-3-(thiophen-3-yl)-3-(3,3,5-trimethyl-2,3-dihydro-1H-pyrrolo[3,2-b]pyridin-1-yl)propan-1-amine] the same measures were 100 to 500 nM and 100 to 500 nM.
For `CNCC[C@H](c1ccsc1)N1CC(C)(C)c2ncc(C)cc21` [Example 60, (R)-N-methyl-3-(thiophen-3-yl)-3-(3,3,6-trimethyl-2,3-dihydro-1H-pyrrolo[3,2-b]pyridin-1-yl)propan-1-amine] the same measures were more than 1000 nM and 100 to 500 nM.

The values above are taken from patent US20200207759A1, “NEW PROPANAMINE DERIVATIVES FOR TREATING PAIN AND PAIN RELATED CONDITIONS” (ESTEVE PHARMACEUTICALS, S.A., priority 2017, published 2020).
